Data published in EP0829478A2, “N-Benzylimidazolium and N-benzyltriazolium derivatives, their preparation and their use as antifungal and antimycotic agents” (F. HOFFMANN-LA ROCHE AG, priority 1996, dated 1998).
Where a name gives a salt, the structure may show the parent alone. Read-outs that look alike come from different tables or passages of the source.

Legend:
[1] = Water solubility (Table 1); type: physicochemical
[2] = Conversion of the azolium compounds to ketoconazole / itraconazole on incubation in human plasma; type: in vitro ADME; details: 10µg/ml, 37°C; for metabolised at 5 min / remaining at 5 min: incubation time 5 min
Experimental: The compounds of formula I were incubated with human plasma at a concentration of 10µg/ml at 37°C for up to 120 min.

Aspergillus fumigatus [3] = assay: Systemic aspergillosis model in rats, ED50; type: in vivo; details: 336 h
Text: (§1) Male Fisher rats, strain F344/DuCrj, were employed for experimental infection models such as systemic candidiasis, systemic aspergillosis and pulmonary aspergillosis model. Immunocompetent 4 weeks old rats were used for systemic candidiasis or systemic aspergillosis which occurred her infection with Candida albicans conidia of 5x10^6/rat or with Aspergillus fumigatus conidia of 6x10^5/rat via tail vein. Otherwise for pulmonary aspergillosis model, rats had been immunosuppressed with cortisone acetate treatments prior to infection with 2x10^5/rat intratrachially. Treatments were given twice on the first day and once daily on following 4 days both for systemic and pulmonary aspergillosis (Ib.i.+4q.d.), for systemic candidiasis rats were treated at 0, 4, 24, and 48 h after infection (Ib.i.d.+2q.d.).

Candida albicans = assay: Systemic candidiasis model in rats, ED50; type: in vivo; details: 336 h
Text: as §1

Aspergillus fumigatus [4] = assay: Pulmonary aspergillosis model in immunosuppressed rats, ED50; type: in vivo; details: 336 h
Text: as §1

[5] = solvent a = distilled water, read-out: solubility
[6] = ketoconazole formed, read-out: Observed (%) KCZ
[7] = remaining parent compound, read-out: Observed (%) Comp. I
[8] = iv, read-out: Effective dose 50% (ED50) Systemic candidiasis i.v., male Fisher rats F344/DuCrj, immunocompetent, i.v., treated at 0, 4, 24 and 48 h after infection, determined on day 14 after infection
[9] = po, read-out: Effective dose 50% (ED50) Systemic candidiasis p.o., male Fisher rats F344/DuCrj, immunocompetent, p.o., treated at 0, 4, 24 and 48 h after infection, determined on day 14 after infection
[10] = iv, read-out: Effective dose 50% (ED50) Systemic aspergillosis i.v., male Fisher rats F344/DuCrj, immunocompetent, i.v., twice on first day, once daily on following 4 days, determined on day 14 after infection
[11] = po, read-out: Effective dose 50% (ED50) Systemic aspergillosis p.o., male Fisher rats F344/DuCrj, immunocompetent, p.o., twice on first day, once daily on following 4 days, determined on day 14 after infection
[12] = iv, read-out: Effective dose 50% (ED50) Pulmonay aspergillosis i.v., male Fisher rats F344/DuCrj immunosuppressed with cortisone acetate, i.v., twice on first day, once daily on following 4 days, determined on day 14 after infection
[13] = po, read-out: Effective dose 50% (ED50) Pulmonay aspergillosis p.o., male Fisher rats F344/DuCrj immunosuppressed with cortisone acetate, p.o., twice on first day, once daily on following 4 days, determined on day 14 after infection
[14] = mcilvaine buffer, pH 8.02, aqueous buffer

Compound `CC(=O)Oc1c(C)cc(C[n+]2ccn(CC(OCc3ccc(Cl)cc3Cl)c3ccc(Cl)cc3Cl)c2)cc1C` (racemic) [Example 7, dl-1-(4-Acetoxy-3,5-dimethyl-benzyl)-3-[2-(2,4-dichloro-benzyloxy)-2-(2,4-dichloro-phenyl)-ethyl]-3H-imidazol-1-ium bromide] has a solubility [1, 5] of over 1000 µg/mL.
`CC(=O)Oc1c(Cl)cc(C[n+]2ccn(CC3(c4ccc(Cl)cc4Cl)OCC(COc4ccc(N5CCN(C(C)=O)CC5)cc4)O3)c2)cc1Cl` (stereo not drawn) [Example 6, 1-(4-Acetoxy-3,5-dichloro-benzyl)-3-[(2R*,4S*)-[4-[4-(4-acetyl-piperazin-1-yl)-phenoxymethyl]-2-(2,4-dichloro-phenyl)-[1,3]dioxolan-2-ylmethyl]-3H-imidazol-1-ium bromide] gave a solubility [1, 5] of 6500 µg/mL.
With `CC(=O)N1CCN(c2ccc(OC[C@H]3CO[C@](Cn4cc[n+](Cc5cc(C)c(OC(=O)C(C)C)c(C)c5)c4)(c4ccc(Cl)cc4Cl)O3)cc2)CC1.[Br-]` (relative stereo) [Example 5, 3-[(2R*,4S*)-4-[4-(4-Acetyl-piperazin-1-yl)-phenoxymethyl]-2-(2,4-dichloro-phenyl)-[1,3]dioxolan-2-ylmethyl]-1-(4-isobutyryloxy-3,5-dimethyl-benzyl)-3H-imidazol-1-ium bromide] the solubility ([1]; distilled water, water) was over 1000 µg/mL.
With `CC(=O)Oc1ccc(C[n+]2ccn(C[C@]3(c4ccc(Cl)cc4Cl)OC[C@H](COc4ccc(N5CCN(C(C)=O)CC5)cc4)O3)c2)cc1` (relative stereo) [Example 9, 1-(4-Acetoxybenzyl)-3-[(2R*,4S*)-4-[4-(4-acetylpiperazin-1-yl)phenoxymethyl]-2-(2,4-dichlorophenyl)-[1,3]dioxolan-2-ylmethyl]-3H-imidazol-1-ium bromide] the metabolised at 5 min [2, 6] was 89% and the remaining at 5 min [2, 7] was under 5%.
`COc1cc(C[n+]2ccn(CC3(c4ccc(Cl)cc4Cl)OCC(COc4ccc(N5CCN(C(C)=O)CC5)cc4)O3)c2)ccc1OC(C)=O` (centres unmarked) [Example 12] showed a solubility [1, 5] of 5000 µg/mL.
With `CC(=O)N1CCN(c2ccc(OCC3COC(Cn4cc[n+](Cc5ccc(OC(=O)C(C)(C)C)cc5)c4)(c4ccc(Cl)cc4Cl)O3)cc2)CC1` (stereo not drawn) [Example 10, 3-[(2R*,4S*)-4-[4-(4-Acetylpiperazin-1-yl)phenoxymethyl]-2-(2,4-dichlorophenyl)-[1,3]dioxolan-2-ylmethyl]-1-[4-(2,2-dimethylpropionyloxy)benzyl]-3H-imidazol-1-ium bromides] the metabolised at 10 min ([2]; ketoconazole formed, incubation time 10 min, read-out: Observed (%) KCZ) was 80% and the remaining at 10 min ([2]; remaining parent compound, incubation time 10 min, read-out: Observed (%) Comp. I) was under 5%.
With `CCC(C)n1ncn(-c2ccc(N3CCN(c4ccc(OCC5COC(Cn6cncn6)(c6ccc(Cl)cc6Cl)O5)cc4)CC3)cc2)c1=O` (centres unmarked) [Itraconazole, reference compound] the ED50 (Aspergillus fumigatus [3]; po, read-out: Effective dose 50% (ED50) Systemic aspergillosis p.o.) was 17 µmol/kg.
`CC(=O)Oc1ccc(C[n+]2ccn(C[C@]3(c4ccc(Cl)cc4Cl)OC[C@H](COc4ccc(N5CCN(C(C)=O)CC5)cc4)O3)c2)cc1C` (relative stereo) [Example 11, 1-(4-Acetoxy-3-methyl-benzyl)-3-[(2R*,4S*)-4-[4-(4-acetyl-piperazin-1-yl)-phenoxymethyl]-2-(2,4-dichloro-phenyl)-[1,3]dioxolan-2-ylmethyl]-3H-imidazol-1-ium bromide] gave a metabolised at 5 min [2, 6] of 100% and a remaining at 5 min [2, 7] of under 5%.
In the case of `CNCC(=O)Oc1c(C)cc(C[n+]2cnn(C[C@](O)(c3ccc(F)cc3F)[C@@H](C)c3nc(-c4ccc(C#N)cc4)cs3)c2)cc1C` [Example 23, 1-[(2R,3R)-3-[4-(4-Cyanophenyl)thiazol-2-yl]-2-(2,4-difluorophenyl)-2-hydroxybutyl]-4-[3,5-dimethyl-4-[(methylamino)acetoxy]benzyl]-1H-[1,2,4]triazol-4-ium bromide trifluoroacetic acid salt], the ED50 (Candida albicans; [8]) is reported as 4.6 µmol/kg, the ED50 (Candida albicans; [9]) is reported as 4.7 µmol/kg and the ED50 (Aspergillus fumigatus [3]; [10]) is reported as 17 µmol/kg. It also gave an ED50 (Aspergillus fumigatus [3]; [11]) of 19 µmol/kg, an ED50 (Aspergillus fumigatus [4]; [12]) of 8 µmol/kg and an ED50 (Aspergillus fumigatus [4]; [13]) of 17 µmol/kg.
Work on `CO[C@H]1[C@@H](Cn2c[n+](Cc3cc(C)c(OC(C)=O)c(C)c3)cn2)[C@H](CCc2ccc(C)cc2)CCC1(C)C.[Br-]` [Example 8, 4-(4-acetoxy-3,5-dimethyl-benzyl)-1-[(1R,2S,6R)-2-methoxy-3,3-dimethyl-6-(2-p-tolyl-ethyl)-cyclohexylmethyl]-1H-[1,2,4]triazol-4-ium bromide] yielded a solubility ([1]; distilled water, water) of 14000 µg/mL.
In the case of `CCC(C)n1ncn(-c2ccc(N3CCN(c4ccc(OCC5COC(Cn6c[n+](Cc7cc(C)c(OC(=O)c8ccccc8)c(C)c7)cn6)(c6ccc(Cl)cc6Cl)O5)cc4)CC3)cc2)c1=O.[Br-]` (centres unmarked) [Example 3, 4-(4-Benzoyloxy-3,5-dimethylbenzyl)-1-[4-(4-{4-[4-(1-(2-butyl)-5-oxo-1,5-dihydro-[1,2,4]triazol-4-yl)phenyl]piperazin-1-yl}phenoxymethyl)-2-(2,4-dichlorophenyl)-[1,3]dioxolan-2-ylmethyl]-1H-[1,2,4]triazol-4-ium bromide], the solubility [1, 14] is reported as 400 µg/mL.
With `OC(Cn1cncn1)(Cn1cncn1)c1ccc(F)cc1F` [Fluconazole, reference compound] the ED50 (Candida albicans; po, read-out: Effective dose 50% (ED50) Systemic candidiasis p.o.) was over 2.9 µmol/kg.
`CC(=O)Oc1c(C)cc(C[n+]2ccn(CC3(c4ccc(Cl)cc4Cl)OCC(COc4ccc(N5CCN(C(C)=O)CC5)cc4)O3)c2)cc1C` (stereo not drawn) [Example 4, 1-(4-Acetoxy-3,5-dimethyl-benxyl)-3-[(2R*,4S*)-4-[4-(4-acetyl-piperazin-1-yl)-phenoxymethyl]-2-(2,4-dichloro-phenyl)-[1,3]dioxolan-2-ylmethyl]-3H-imidazol-1-ium bromide] showed a metabolised at 20 min ([2]; ketoconazole formed, incubation time 20 min, read-out: Observed (%) KCZ) of 74% and a remaining at 20 min ([2]; remaining parent compound, incubation time 20 min, read-out: Observed (%) Comp. I) of 19%.
For `CCCCCC(=O)Oc1c(C)cc(C[n+]2cnn(CC3(c4ccc(Cl)cc4Cl)OCC(COc4ccc(N5CCN(c6ccc(-n7cnn(C(C)CC)c7=O)cc6)CC5)cc4)O3)c2)cc1C` (racemic) [Example 13, dl-1-[4-(4-{4-[4-(1-sec-butyl-5-oxo-1,5-dihydro-[1,2,4]triazol-4-yl)-phenyl]-piperazin-1-yl}-phenoxymethyl)-2-(2,4-dichloro-phenyl)-[1,3]dioxolan-2-ylmethyl]-4-(4-hexanoyloxy-3,5-dimethyl-benzyl)-1H-[1,2,4]triazol-4-ium methanesulfonate], the solubility ([1]; mcilvaine buffer, pH 8.02, aqueous buffer, solvent b = Mellvaine buffer(pH8.02), read-out: solubility) was 500 µg/mL.
`Cc1cc(C[n+]2cnn(C[C@](O)(c3ccc(F)cc3F)[C@@H](C)c3nc(-c4ccc(C#N)cc4)cs3)c2)cc(C)c1OC(=O)[C@@H]1CCCN1` [Example 16, 1-[(2R,3R)-3-[4-(4-Cyanophenyl)-thiazol-2-yl]-2-(2,4-difluorophenyl)-2-hydroxybutyl]-4-[(S)-3,5-dimethyl-4-(pyrrolidine-2-carbonyloxy)-benzyl]-1H-[1,2,4]triazol-4-ium bromide trifluoroacetic acid salt] showed an ED50 (Candida albicans; [8]) of 3.5 µmol/kg, an ED50 (Candida albicans; [9]) of under 2.1 µmol/kg and an ED50 (Aspergillus fumigatus [3]; [10]) of over 35 µmol/kg. The ED50 (Aspergillus fumigatus [3]; [11]) was over 55 µmol/kg, the ED50 (Aspergillus fumigatus [4]; [12]) was 17 µmol/kg and the ED50 (Aspergillus fumigatus [4]; [13]) was 18 µmol/kg.
`CCC(C)n1ncn(-c2ccc(N3CCN(c4ccc(OCC5COC(Cn6c[n+](Cc7cc(C)c(OC(C)=O)c(C)c7)cn6)(c6ccc(Cl)cc6Cl)O5)cc4)CC3)cc2)c1=O` (centres unmarked) [Example 1] gave a metabolised at 1 h ([2]; itraconazole formed, incubation time 60 min, read-out: Observed (%) ICZ) of 28% and a remaining at 1 h ([2]; remaining parent compound, incubation time 60 min, read-out: Observed (%) Comp. I) of 47%.
`CCC(C)n1ncn(-c2ccc(N3CCN(c4ccc(OCC5COC(Cn6c[n+](Cc7cc(C)c(OC(=O)c8cccnc8)c(C)c7)cn6)(c6ccc(Cl)cc6Cl)O5)cc4)CC3)cc2)c1=O.[Br-]` (centres unmarked) [Example 2, 4-(4-(Pyridine-3-carbonyloxy)-3,5-dimethylbenzyl)-1-[4-(4-{4-(4-(1-(2-butyl)-5-oxo-1,5-dihydro-[1,2,4]triazol-4-yl)phenyl]piperazin-1-yl}phenoxymethyl)-2-(2,4-dichlorophenyl)-[1,3]dioxolan-2-ylmethyl]-1H-[1,2,4]triazol-4-ium bromide] gave a solubility [1, 14] of 400 µg/mL.
